From publication PMC4726260, “Combined ligand-observe ^19F and protein-observe ^15N,^1H-HSQC NMR suggests phenylalanine as the key Δ-somatostatin residue recognized by human protein disulfide isomerase” (Scientific Reports, 2016)
Non-standard residues stand in square brackets, D forms with d. Residues, ends and D or L forms follow the SMILES beside them. No end group written: not given here. Phe(4-F) = N[C@@H](Cc1ccc(F)cc1)C(=O)O

T1: hPDI b’x (Homo sapiens, UniProt P07237)
T1 construct: There is also a short 19 amino acid x-linker region between the b’ and a’ domains; made in house; host or cells: E. coli
T1 sequence (P07237 230-368 limits assumed): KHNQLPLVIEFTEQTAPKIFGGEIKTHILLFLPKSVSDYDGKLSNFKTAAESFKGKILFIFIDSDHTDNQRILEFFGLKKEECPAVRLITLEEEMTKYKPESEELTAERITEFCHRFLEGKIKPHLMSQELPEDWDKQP


Tests used:
hPDI b’x [1] = biological target: T1, hPDI b’x; assay: Protein-observe 15N,1H-HSQC NMR titration (chemical shift perturbation, Kd); assay type: binding; conditions: for Kd: read-out: Dissociation constant (Kd), PROTEIN 15N/1H Tracked; for Binding classification from 15N,1H-HSQC titration series: 310 K, pH 7.0, resonance shifts throughout the titration
Procedure: (§1) NMR titrations were carried out by collecting ^19F NMR spectra (at a constant peptide concentration of 0.15 mM) and ^15N,^1H-HSQC spectra (at a constant protein concentration of 0.25 mM). This provided binding perspectives from both peptide and protein. ^19F NMR data provided precise curve fits of equation (1) with Kd values in agreement with those obtained by ^15N NMR (Table 1). […] Triple fluorinated peptide spectra are shown in Fig. 4 with example Kd graphs plotted using chemical shift change against b’x concentration (see Supplementary Information SV for single fluorinated peptide ^19F spectra).
(§2) All spectra were collected using a 4-channel, 5-amplifier Bruker Avance III 14.1 T (600 MHz ^1H) NMR spectrometer equipped with a 5 mm QCI-F cryoprobe. ^15N,^1H-HSQC spectra were acquired over 45 min on samples containing 0.25 mM b’x and varying peptide concentrations. Each ^19F 1D spectrum was acquired over 60 min on samples of 0.15 mM Δ-som with varying protein concentration. Ratios of the variable:static components in each experiment were 1:4, 1:2, 1:1, 1.5:1, 2:1 and 2.5:1. All samples were run at 310 K in 20 mM sodium phosphate buffer (pH 7.0) containing 50 mM NaCl, 5% D6-DMSO, 5% ^2H2O and 0.05% sodium azide. 1D NMR data were processed using Bruker Topspin software and referenced using the position of trifluoroacetic acid (−76.55 ppm). 2D data were processed using NMRPipe[31] and analysed using the CCPN Analysis software package.
Amide chemical shifts were calculated in Hz as √[(0.6Δ^1H)^2 + (Δ^15N)^2]. Dissociation constants (Kd) for each shifting peak were calculated by plotting the chemical shift perturbation (Hz) against ligand concentration (mM) and fitting the curve to the equation: […]
(§3) where Δobs is the observed chemical shift perturbation, Δmax the maximum chemical shift perturbation and [P] and [L] the protein and ligand concentrations respectively. This equation was used to fit both ^15N and ^19F NMR data using KaleidaGraph 4.0 (Synergy Software). Standard errors from the Levenberg-Marquardt fitting routine were taken as the uncertainties. We determined Kd from ^15N,^1H HSQC NMR data using two approaches: First, by simultaneous fitting all shifts which are averaged to create a single plot, which is considered an accurate method of Kd determination. Second, we tracked and fitted each peak individually to the equation above and averaged all results and errors across all fits. […] This hPDI system creates Kd values with shallow binding curve where errors where average chemical shifts reduce fitting accuracy and individual fitting produces higher resoltuion. Therefore, we used Kd values from the averaged individual fit method within this paper to report smaller errors.

hPDI b’x [2] = biological target: T1, hPDI b’x; assay: Ligand-observe 19F NMR titration (chemical shift change vs b’x concentration, Kd); assay type: binding; conditions: 310 K
Procedure: as §1, §2, §3

[3] = biological target: Δ-somatostatin (Homo sapiens) (UniProt P61278); assay: 19F NMR; conditions: cited from earlier work
[4] = biological target: human protein disulphide isomerase (hPDI) b'x fragment (human) (UniProt P07237); assay: SEC; gel filtration elution profile of 15N labelled b'x (step of the purification); absorbance at 280 nm
[5] = biological target: human protein disulphide isomerase (hPDI) fragment b'x (human); assay: NMR titration; protein-observed 15N,1H-HSQC; 0.25 mM 15N b'x constant, peptide titrated (ratios 1:4 to 2.5:1); 310 K; 20 mM sodium phosphate pH 7.0, 50 mM NaCl, 5% D6-DMSO, 5% 2H2O, 0.05% sodium azide; Kd is the average of the fits of the individual shifting peaks
[6] = 15N,1H-HSQC, constant 0.25 mM 15N b’x, varying peptide (ratios 1:4 to 2.5:1), 310 K (37 °C), 20 mM sodium phosphate pH 7.0, 50 mM NaCl, 5% D6-DMSO, average of individual residue fits, ± standard error of Levenberg-Marquardt fit
[7] = 19F 1D NMR, constant 0.15 mM singly fluorinated peptide, varying b’x, 20 mM sodium phosphate pH 7.0, 50 mM NaCl, 5% D6-DMSO, ± standard error of fit, read-out: Dissociation constant (Kd), LIGAND 19F Tracked (Single-F)

Kd (hPDI b’x [1]; [6]) | Kd [5] | Molecule | also measured
61 ± 47 µM |  | C[C@H](N)C(=O)NCC(=O)N[C@@H](CO)C(=O)N[C@@H](CCCCN)C(=O)N[C@@H](CC(N)=O)C(=O)N[C@@H](Cc1ccc(F)cc1)C(=O)N[C@@H](Cc1ccccc1)C(=O)N[C@@H](Cc1c[nH]c2ccccc12)C(=O)N[C@@H](CCCCN)C(=O)N[C@H](C(=O)N[C@@H](Cc1ccccc1)C(=O)N[C@H](C(=O)N[C@@H](CO)C(=O)N[C@@H](CO)C(=O)O)[C@@H](C)O)[C@@H](C)O [F1 Δ-som] (H-AGSKN[Phe(4-F)]FWKTFTSS-OH) | Kd (hPDI b’x [2]; [7]): 109 ± 13 µM
48 ± 35 µM |  | C[C@H](N)C(=O)NCC(=O)N[C@@H](CO)C(=O)N[C@@H](CCCCN)C(=O)N[C@@H](CC(N)=O)C(=O)N[C@@H](Cc1ccc(F)cc1)C(=O)N[C@@H](Cc1ccc(F)cc1)C(=O)N[C@@H](Cc1c[nH]c2ccccc12)C(=O)N[C@@H](CCCCN)C(=O)N[C@H](C(=O)N[C@@H](Cc1ccc(F)cc1)C(=O)N[C@H](C(=O)N[C@@H](CO)C(=O)N[C@@H](CO)C(=O)O)[C@@H](C)O)[C@@H](C)O [F1,2,3 Δ-som] (H-AGSKN[Phe(4-F)][Phe(4-F)]WKT[Phe(4-F)]TSS-OH) | Kd (hPDI b’x [2]; 19F 1D NMR, F1 (Phe6) resonance of triple fluorinated peptide, 0.15 mM peptide, varying b’x, pH 7.0, ± standard error of fit, read-out: Dissociation constant (Kd), LIGAND 19F Tracked (Triple-F), F1 peak): 108 ± 15 µM; Kd (hPDI b’x [2]; 19F 1D NMR, F2 (Phe7) resonance of triple fluorinated peptide, 0.15 mM peptide, varying b’x, pH 7.0, ± standard error of fit, read-out: Dissociation constant (Kd), LIGAND 19F Tracked (Triple-F), F2 peak): 33 ± 11 µM; Kd (hPDI b’x [2]; 19F 1D NMR, F3 (Phe11) resonance of triple fluorinated peptide, 0.15 mM peptide, varying b’x, pH 7.0, ± standard error of fit, read-out: Dissociation constant (Kd), LIGAND 19F Tracked (Triple-F), F3 peak): 45 ± 14 µM; Kd (hPDI b’x [2]; mean of the Kd from each monitored 19F resonance in the triple fluorinated peptide, 0.15 mM peptide, pH 7.0, read-out: Dissociation constant (Kd), LIGAND 19F Tracked (Triple-F), mean Kd): 62 ± 13 µM
51 ± 30 µM |  | C[C@H](N)C(=O)NCC(=O)N[C@@H](CO)C(=O)N[C@@H](CCCCN)C(=O)N[C@@H](CC(N)=O)C(=O)N[C@@H](Cc1ccccc1)C(=O)N[C@@H](Cc1ccc(F)cc1)C(=O)N[C@@H](Cc1c[nH]c2ccccc12)C(=O)N[C@@H](CCCCN)C(=O)N[C@H](C(=O)N[C@@H](Cc1ccccc1)C(=O)N[C@H](C(=O)N[C@@H](CO)C(=O)N[C@@H](CO)C(=O)O)[C@@H](C)O)[C@@H](C)O [F2 Δ-som] (H-AGSKNF[Phe(4-F)]WKTFTSS-OH) | Kd (hPDI b’x [2]; [7]): 27 ± 3 µM
84 ± 53 µM |  | C[C@H](N)C(=O)NCC(=O)N[C@@H](CO)C(=O)N[C@@H](CCCCN)C(=O)N[C@@H](CC(N)=O)C(=O)N[C@@H](Cc1ccccc1)C(=O)N[C@@H](Cc1ccccc1)C(=O)N[C@@H](Cc1c[nH]c2ccccc12)C(=O)N[C@@H](CCCCN)C(=O)N[C@H](C(=O)N[C@@H](Cc1ccc(F)cc1)C(=O)N[C@H](C(=O)N[C@@H](CO)C(=O)N[C@@H](CO)C(=O)O)[C@@H](C)O)[C@@H](C)O [F3 Δ-som] (H-AGSKNFFWKT[Phe(4-F)]TSS-OH) | Kd (hPDI b’x [2]; [7]): 97 ± 21 µM
 |  | AGSKNAAWKTATSS [Phe6,7,11 → Ala Δ-som, triple Phe → Ala peptide of Δ-som] | Binding classification from 15N,1H-HSQC titration series (hPDI b’x [1]; 0.25 mM 15N b’x): non-binding; Chemical shifts identified at the end point of the titration (hPDI b’x [1]; 15N,1H-HSQC, 0.25 mM 15N b’x, shifts did not map to the ligand binding site): < 0.01 ppm; Dissociation constant (Kd), PROTEIN 15N/1H Tracked (hPDI b’x [1]; [6]): Non binding
242 ± 177 µM |  | AGSKNAAWKTFTSS [Phe6,7 → Ala Δ-som] | 
587 ± 174 µM |  | AGSKNAFWKTATSS [Phe6,11 → Ala Δ-som] | 
199 ± 100 µM |  | AGSKNAFWKTFTSS [Phe6 → Ala Δ-som] | 
412 ± 219 µM |  | AGSKNFAWKTATSS [Phe7,11 → Ala Δ-som] | 
123 ± 96 µM |  | AGSKNFAWKTFTSS [Phe7 → Ala Δ-som] | 
261 ± 101 µM |  | AGSKNFFWKTATSS [Phe11 → Ala Δ-som] | 
103 ± 47 µM |  | AGSKNFFWKTFTSS [Δ-som, Δ-somatostatin] | 
 |  | PDI b'x (from UniProt P07237) | Kd [3]: 23 µM
 |  | RERQIKKQTALVELV [helix-28 from human serum albumin, helix-28 from human serum albumin (…), reference compound] | Binding classification from 15N,1H-HSQC titration series (hPDI b’x [1]; 0.25 mM 15N b’x): non-binding
 |  | human protein disulphide isomerase (hPDI) b'x fragment (from UniProt P07237 18-508) (domain or fragment) | stoichiometry N [4]: 2
 | 242 µM | AGSKNAAWKTFTSS [Phe6,7 → Ala Δ-som] | 
 | 61 µM | AGSKN[Phe(4-F)]FWKTFTSS [F1 Δ-som] | 
 | 123 µM | AGSKNFAWKTFTSS [Phe7 → Ala Δ-som] | 
 | 199 µM | AGSKNAFWKTFTSS [Phe6 → Ala Δ-som] | 
 | 51 µM | AGSKNF[Phe(4-F)]WKTFTSS [F2 Δ-som] | 
 | 84 µM | AGSKNFFWKT[Phe(4-F)]TSS [F3 Δ-som] | 
 | 412 µM | AGSKNFAWKTATSS [Phe7,11 → Ala Δ-som] | 
 | 261 µM | AGSKNFFWKTATSS [Phe11 → Ala Δ-som] | 
 | 48 µM | AGSKN[Phe(4-F)][Phe(4-F)]WKT[Phe(4-F)]TSS [F1,2,3 Δ-som] | 
 | 587 µM | AGSKNAFWKTATSS [Phe6,11 → Ala Δ-som] | 
 | 103 µM | AGSKNFFWKTFTSS [Δ-somatostatin] | 
